Reference: patent US6911468B2, “Tyrosine phosphatase inhibitors” (Takeda Chemical Industries, Ltd., priority 2000, dated 2005)

Molecular target: T1, PTP1B (Homo sapiens, UniProt P18031)
T1 construct: in order to express 1-321 amino acid region encoding enzyme active domain of PTP1B; made in house; host or cells: E. coli BL21 DE3 pLysS
T1 sequence (P18031 1-321): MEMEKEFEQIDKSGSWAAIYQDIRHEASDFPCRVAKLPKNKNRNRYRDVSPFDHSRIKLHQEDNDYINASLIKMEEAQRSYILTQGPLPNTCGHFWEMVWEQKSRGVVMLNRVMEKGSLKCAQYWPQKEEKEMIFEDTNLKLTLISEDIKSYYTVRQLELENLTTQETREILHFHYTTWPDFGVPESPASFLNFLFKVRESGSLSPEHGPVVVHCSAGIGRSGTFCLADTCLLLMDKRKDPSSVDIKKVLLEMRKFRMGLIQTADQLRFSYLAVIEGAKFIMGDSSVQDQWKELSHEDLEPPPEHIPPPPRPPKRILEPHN
Assay: Measurement of PTP1B Inhibitory Activity (dephosphorylation of p-nitrophenylphosphate, absorbance at 405 nm)
Type: biochemical
Conditions: PTP1B enzyme active domain (1-321 amino acid, 6 histidine residues at C-terminal), pNPP substrate, pH 6.5, 37° C. for 1 hour
Procedure: Based on the sequence of human PTP-1B registered in Genbank (M31724) database, primer 1 and primer 2 were synthesized, and PTP1B cDNA was amplified from human skeletal muscle cDNA library (Clonetech, Inc. HL5002a) according to PCR method using these primers. The cycle of reactions at 98° C. for 10 seconds, at 58° C. for 30 seconds and at 72° C. for 90 seconds was repeated 35 cycles. The PCR reaction product (1322 bp) was cloned to pT7 Blue-T vector (Novagen, Inc.) to identify the base sequence.
Human PTP 1B cDNA (1322 bp) (100 ng) was amplified with primer 3 and primer 4 in order to express 1-321 amino acid region encoding enzyme active domain of PTP1B. The PCR reaction product (976 bp) was cloned to pT7 Blue-T vector (Novagen, Inc.) to identify the base sequence.
The pT7 Blue-T vector-human PTP1B cDNA (976 bp) was cleaved with restriction enzymes NdeI and SalI (Takara Shuzo Co., Ltd.) and subjected to electrophoresis using 0.7% agarose gel, and a 969 bp fragment was excised and purified. The fragment was introduced into pET32a (+) vector (Novagen, Inc.) cleaved with restriction enzymes NdeI and XhoI (Takara Shuzo Co., Ltd.), to constitute a vector pET32a (+)-human PTP1B cDNA (969 bp), which expresses PTP1B (321 amino acid) with 6 histidine residues binded to a C-terminal thereof under a control of T7 lac promotor.
E.coli BL21 DE3 pLysS (Novagen, Inc.) was transformed with the pET32a (+)-human PTP 1B cDNA (969 bp) to give an ampicillin (50 μg/ml) resistant bacterium. This was shake cultured at 37° C. using 5L of 2xYT medium (ampicillin (50 μg/ml)). When OD600nm reached to 0.5, IPTG (Isopropyl b-D-Thiogalactoside) was added to the culture medium so as to be 1 mM in order to induce the expression of protein, and this medium was further cultured at 37° C. overnight. The bacterium was collected by centrifugation (8000 rpm, 10 minutes, 4° C.).
The bacterium was suspended in lysis buffer (50 ml) (20 mM Tris HCl (pH 8.0), 0.5 M NaCl, 1 mM PMSF, 5 mM benzamidine, Lysozyme 5 mg) and crushed by sonication. To the supernatant after centrifuging (12000 rpm, 10 minutes, 4° C.) was added imidazole so as to be 50 mM and the mixture was mixed with His Bind resin (Novagen, Inc.) binded with Ni ion (4° C., overnight). The mixture was washed with 200 ml of (20 mM Tris HCl (pH 8.0), 0.5 M NaCl, 1 mM PMSF, 5 mM benzamidine, 50 mM imidazole), eluted with (20 mM Tris HCl (pH 8.0), 0.5 M NaCl, 1 mM PMSF, 5 mM benzamidine, 400 mM imidazole) and concentrated by centrifugation using Ultrafree-15 Biomax-50 (MILLIPORE Corp.) (11 mg/ml, 4ml). The purified protein (PTP1B) was identified by Western blotting method using SDS-PAGE, coomassie Blue stain and anti-PTP1B antibody (UBI Inc.).
The PTP1B inhibitory activity of the test compound was evaluated by measuring the ability of the test compound to dephosphorylate p-nitrophenylphosphate (pNPP) (a change of the absorbance at 405 nm).
To a buffer for measurement of the activity (0.1 M sodium acetate (pH 6.5), 1 mM EDTA, 10 mM DTT) (10 ml) was added PTP1B enzyme solution (2 μl) and the mixture was added to each well of a 96-well microtiter plate (100 μl each). A solution of the test compound in DMSO (10 μl) and 2 mM pNPP/the buffer for measurement of the activity (90 μl) were then added to each well, and the absorbance at 405 nm was measured. After keeping at 37° C. for 1 hour, the absorbance was measured again to evaluate a change of the absorbance. Regarding the change of the absorbance in the absence of the test compound as 100%, the concentration of the compound necessary for 50% inhibition (IC50 value) was calculated.

Row | IC50 [nM] | SMILES
1 | 130 | CCCCCCCCCCCCn1c(C)ccc1-c1ccc(O[C@H](Cc2ccccc2)C(=O)O)cc1 [Example 56, (2R)-2-[4-(1-Dodecyl-5-methyl-1H-pyrrol-2-yl)phenoxy]-3-phenylpropanoic acid]
2 | 340 | CCCCCCCCn1c(C)ccc1-c1ccc(O[C@H](Cc2ccccc2)C(=O)O)cc1 [Example 58, (2R)-2-[4-(5-Methyl-1-octyl-1H-pyrrol-2-yl)phenoxy]-3-phenylpropanoic acid]
3 | 360 | CCCCCCCCCn1c(C)ccc1-c1ccc(O[C@H](Cc2ccccc2)C(=O)O)cc1 [Example 60, (2R)-2-[4-(5-Methyl-1-nonyl-1H-pyrrol-2-yl)phenoxy]-3-phenylpropanoic acid]
4 | 210 | CCCCCCCCCCn1c(C)ccc1-c1ccc(O[C@H](Cc2ccccc2)C(=O)O)cc1 [Example 62, (2R)-2-[4-(1-Decyl-5-methyl-1H-pyrrol-2-yl)phenoxy]-3-phenylpropanoic acid]
5 | 230 | CCCCCCCCCCCn1c(C)ccc1-c1ccc(O[C@H](Cc2ccccc2)C(=O)O)cc1 [Example 64, (2R)-2-[4-(5-Methyl-1-undecyl-1H-pyrrol-2-yl)phenoxy]-3-phenylpropanoic acid]

The remaining lines, values behind:

Row | SMILES | IC50 [nM]
6 | O=C(O)/C=C/c1ccc(-c2cccn2-c2ccc(/C=C/C(=O)O)cc2)cc1 [Example 12, (E)-3-[4-(1-{4-[(E)-3-Hydroxy-3-oxo-1-propenyl]phenyl}-1H-pyrrol-2-yl)phenyl]-2-propenoic acid] | 3100
7 | Cc1ccc(-c2ccc(O[C@H](Cc3ccccc3)C(=O)O)cc2)n1Cc1cccc(Oc2ccccc2)c1 [Example 54, (2R)-2-{4-[1-(3-phenoxybenzyl)-5-methyl-1H-pyrrol-2-yl]phenoxy}-3-phenylpropanoic acid] | 310
8 | CCCCCCCCCCCCCn1c(C)ccc1-c1ccc(O[C@H](Cc2ccccc2)C(=O)O)cc1 [Example 66, (2R)-2-[4-(5-Methyl-1-tridecyl-1H-pyrrol-2-yl)phenoxy]-3-phenylpropanoic acid] | 170
9 | CCCCCCCCc1ccc(-n2c(C)ccc2-c2ccc(O[C@H](Cc3ccccc3)C(=O)O)cc2)cc1 [Example 94, Sodium (2R)-2-([4-[1-(4-octylphenyl)-5-methyl-1H-pyrrol-2-yl]phenyl]oxy)-3-phenylpropanoate] | 90

Tested on: not given
Assay: not given
Conditions: not given

Row | melting point [°C] | SMILES
10 | > 300 | O=C(O)/C=C/c1ccc(-c2cccn2-c2ccc(/C=C/C(=O)O)cc2)cc1 [Example 12, (E)-3-[4-(1-{4-[(E)-3-Hydroxy-3-oxo-1-propenyl]phenyl}-1H-pyrrol-2-yl)phenyl]-2-propenoic acid]
11 | 132 to 133 | CCCCCCCCCCNC(=O)c1cc(-c2ccc(O[C@H](Cc3ccccc3)C(=O)O)cc2)n(CCc2ccc(Br)cc2)c1C [Example 118, (2R)-2-{4-[1-(4-Bromophenethyl)-4-(decylaminocarbonyl)-5-methyl-1H-pyrrol-2-yl]phenoxy}-3-phenylpropanoic acid]
